# Legend:
# [1] = biological target: T1, cGMP-dependent protein kinase 1 (Homo sapiens) (UniProt Q13976); assay: Selectivity interaction (KinomeScan (DiscoverX)) EUB0000595a PRKG1; conditions: at 10 µM
# T1 sequence (whole entry): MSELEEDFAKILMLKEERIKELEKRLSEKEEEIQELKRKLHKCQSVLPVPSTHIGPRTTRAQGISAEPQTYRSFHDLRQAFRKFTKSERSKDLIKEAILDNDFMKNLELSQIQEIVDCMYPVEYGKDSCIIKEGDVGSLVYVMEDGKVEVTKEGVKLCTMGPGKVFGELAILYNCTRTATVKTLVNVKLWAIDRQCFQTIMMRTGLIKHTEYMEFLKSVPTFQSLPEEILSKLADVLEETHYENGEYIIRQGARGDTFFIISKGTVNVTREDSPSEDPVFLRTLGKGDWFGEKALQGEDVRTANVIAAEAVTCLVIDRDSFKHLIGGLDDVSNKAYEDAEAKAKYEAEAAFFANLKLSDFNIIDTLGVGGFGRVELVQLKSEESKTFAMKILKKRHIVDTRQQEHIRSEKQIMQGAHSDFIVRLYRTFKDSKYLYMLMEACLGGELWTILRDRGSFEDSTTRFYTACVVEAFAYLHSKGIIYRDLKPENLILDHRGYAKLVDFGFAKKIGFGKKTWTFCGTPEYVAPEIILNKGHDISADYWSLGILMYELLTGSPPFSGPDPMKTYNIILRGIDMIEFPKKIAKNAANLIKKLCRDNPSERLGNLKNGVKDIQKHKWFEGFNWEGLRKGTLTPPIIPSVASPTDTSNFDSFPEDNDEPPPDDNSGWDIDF
# [2] = biological target: T2, Histone-lysine N-methyltransferase SMYD3 (Homo sapiens) (UniProt Q9H7B4); conditions: at 1 µM
# T2 sequence (whole entry): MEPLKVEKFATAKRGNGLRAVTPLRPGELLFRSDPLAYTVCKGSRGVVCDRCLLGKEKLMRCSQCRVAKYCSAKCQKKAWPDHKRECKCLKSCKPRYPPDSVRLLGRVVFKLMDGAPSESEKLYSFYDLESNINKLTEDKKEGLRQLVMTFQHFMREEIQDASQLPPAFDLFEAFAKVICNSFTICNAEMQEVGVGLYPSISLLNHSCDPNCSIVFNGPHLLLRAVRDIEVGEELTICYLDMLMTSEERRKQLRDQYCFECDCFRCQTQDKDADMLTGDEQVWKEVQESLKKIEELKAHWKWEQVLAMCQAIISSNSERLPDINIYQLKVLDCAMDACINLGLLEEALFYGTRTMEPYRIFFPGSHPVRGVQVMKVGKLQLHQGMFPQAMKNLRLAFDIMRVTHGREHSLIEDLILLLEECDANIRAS
# [3] = biological target: Endothelin-1 receptor (Homo sapiens) (UniProt P25101); assay: Selectivity interaction (Eurofins CEREP Diversity Profile (receptors and ion channels)) EUB0000279b EDNRA; conditions: at 10 µM
# Chain of Endothelin-1 receptor (Homo sapiens) (P25101 whole entry): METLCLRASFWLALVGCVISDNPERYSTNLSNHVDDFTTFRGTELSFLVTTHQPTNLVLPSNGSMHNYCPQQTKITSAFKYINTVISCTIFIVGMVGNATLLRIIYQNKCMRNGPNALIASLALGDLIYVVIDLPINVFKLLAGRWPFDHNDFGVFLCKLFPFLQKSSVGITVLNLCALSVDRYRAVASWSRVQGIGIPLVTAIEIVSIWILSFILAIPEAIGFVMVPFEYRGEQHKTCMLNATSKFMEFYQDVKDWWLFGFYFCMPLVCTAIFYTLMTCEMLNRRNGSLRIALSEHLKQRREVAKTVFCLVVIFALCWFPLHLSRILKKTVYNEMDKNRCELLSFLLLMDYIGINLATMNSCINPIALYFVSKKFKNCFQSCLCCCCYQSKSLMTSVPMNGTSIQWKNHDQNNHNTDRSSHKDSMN
# [4] = biological target: Serine/threonine-protein kinase PLK1 (Homo sapiens, UniProt P53350); assay: Selectivity interaction (KinomeScan (DiscoverX)) EUB0001049a PLK1; conditions: at 1 µM
# Chain of Serine/threonine-protein kinase PLK1 (P53350 whole entry): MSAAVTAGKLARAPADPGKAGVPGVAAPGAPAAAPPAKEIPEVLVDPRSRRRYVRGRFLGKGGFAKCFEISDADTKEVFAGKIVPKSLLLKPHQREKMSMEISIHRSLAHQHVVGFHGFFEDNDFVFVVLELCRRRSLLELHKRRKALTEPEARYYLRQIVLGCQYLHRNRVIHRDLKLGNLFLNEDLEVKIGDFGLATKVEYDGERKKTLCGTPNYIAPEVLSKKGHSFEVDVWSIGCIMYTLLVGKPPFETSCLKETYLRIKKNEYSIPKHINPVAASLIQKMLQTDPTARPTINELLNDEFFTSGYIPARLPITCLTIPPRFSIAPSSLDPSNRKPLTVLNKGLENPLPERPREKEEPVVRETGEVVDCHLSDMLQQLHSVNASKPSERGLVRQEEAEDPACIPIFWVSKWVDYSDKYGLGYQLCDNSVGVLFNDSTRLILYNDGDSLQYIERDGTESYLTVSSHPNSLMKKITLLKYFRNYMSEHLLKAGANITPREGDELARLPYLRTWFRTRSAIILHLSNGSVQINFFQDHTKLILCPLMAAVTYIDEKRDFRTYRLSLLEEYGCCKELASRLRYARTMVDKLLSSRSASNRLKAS
# [5] = biological target: T3, MAP kinase-activated protein kinase 5 (Homo sapiens) (UniProt Q8IW41); assay: Selectivity interaction (KinomeScan (DiscoverX)) EUB0001049a MAPKAPK5; conditions: at 1 µM
# T3 sequence (whole entry): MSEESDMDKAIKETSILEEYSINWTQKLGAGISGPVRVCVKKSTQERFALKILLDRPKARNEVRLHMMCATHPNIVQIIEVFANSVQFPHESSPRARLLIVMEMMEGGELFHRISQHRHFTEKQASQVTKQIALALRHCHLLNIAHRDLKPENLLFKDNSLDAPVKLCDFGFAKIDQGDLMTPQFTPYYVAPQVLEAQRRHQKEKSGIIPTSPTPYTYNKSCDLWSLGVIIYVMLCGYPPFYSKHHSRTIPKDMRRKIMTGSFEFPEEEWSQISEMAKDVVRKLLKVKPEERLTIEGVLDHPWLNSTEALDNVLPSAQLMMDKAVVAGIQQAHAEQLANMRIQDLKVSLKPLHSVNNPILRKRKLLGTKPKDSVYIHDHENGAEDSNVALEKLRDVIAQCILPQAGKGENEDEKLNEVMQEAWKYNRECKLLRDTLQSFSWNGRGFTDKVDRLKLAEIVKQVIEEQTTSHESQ
# [6] = biological target: T4, Receptor-interacting serine/threonine-protein kinase 1 (Homo sapiens) (UniProt Q13546); assay: Selectivity interaction (KinomeScan (DiscoverX)) EUB0001049a RIPK1; conditions: at 1 µM
# T4 sequence (whole entry): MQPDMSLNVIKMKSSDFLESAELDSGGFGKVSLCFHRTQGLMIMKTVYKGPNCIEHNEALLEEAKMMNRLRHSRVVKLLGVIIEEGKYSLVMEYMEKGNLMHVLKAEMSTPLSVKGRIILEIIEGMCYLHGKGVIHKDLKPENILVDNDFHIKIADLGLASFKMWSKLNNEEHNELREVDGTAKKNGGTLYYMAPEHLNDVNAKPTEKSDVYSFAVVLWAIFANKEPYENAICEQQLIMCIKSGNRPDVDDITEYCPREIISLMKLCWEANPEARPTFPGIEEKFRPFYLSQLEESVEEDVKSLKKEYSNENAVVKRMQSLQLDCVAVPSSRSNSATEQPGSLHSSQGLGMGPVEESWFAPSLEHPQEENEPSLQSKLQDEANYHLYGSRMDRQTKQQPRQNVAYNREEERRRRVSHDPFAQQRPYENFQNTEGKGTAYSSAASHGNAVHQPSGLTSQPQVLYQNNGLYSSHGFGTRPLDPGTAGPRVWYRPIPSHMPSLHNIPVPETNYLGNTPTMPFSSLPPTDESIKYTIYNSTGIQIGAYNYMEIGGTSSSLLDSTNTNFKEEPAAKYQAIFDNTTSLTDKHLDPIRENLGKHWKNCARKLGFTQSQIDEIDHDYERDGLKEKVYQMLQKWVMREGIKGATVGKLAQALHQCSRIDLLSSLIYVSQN
# [7] = test system: Epidermal growth factor receptor (Homo sapiens), P00533 [UNDEFINED MUTATION]; assay: Selectivity interaction (ProQinase) EUB0000171b EGFR; conditions: at 1 µM
# Chain of Epidermal growth factor receptor (Homo sapiens), P00533 [UNDEFINED MUTATION] (P00533 whole entry, looked up, change not shown): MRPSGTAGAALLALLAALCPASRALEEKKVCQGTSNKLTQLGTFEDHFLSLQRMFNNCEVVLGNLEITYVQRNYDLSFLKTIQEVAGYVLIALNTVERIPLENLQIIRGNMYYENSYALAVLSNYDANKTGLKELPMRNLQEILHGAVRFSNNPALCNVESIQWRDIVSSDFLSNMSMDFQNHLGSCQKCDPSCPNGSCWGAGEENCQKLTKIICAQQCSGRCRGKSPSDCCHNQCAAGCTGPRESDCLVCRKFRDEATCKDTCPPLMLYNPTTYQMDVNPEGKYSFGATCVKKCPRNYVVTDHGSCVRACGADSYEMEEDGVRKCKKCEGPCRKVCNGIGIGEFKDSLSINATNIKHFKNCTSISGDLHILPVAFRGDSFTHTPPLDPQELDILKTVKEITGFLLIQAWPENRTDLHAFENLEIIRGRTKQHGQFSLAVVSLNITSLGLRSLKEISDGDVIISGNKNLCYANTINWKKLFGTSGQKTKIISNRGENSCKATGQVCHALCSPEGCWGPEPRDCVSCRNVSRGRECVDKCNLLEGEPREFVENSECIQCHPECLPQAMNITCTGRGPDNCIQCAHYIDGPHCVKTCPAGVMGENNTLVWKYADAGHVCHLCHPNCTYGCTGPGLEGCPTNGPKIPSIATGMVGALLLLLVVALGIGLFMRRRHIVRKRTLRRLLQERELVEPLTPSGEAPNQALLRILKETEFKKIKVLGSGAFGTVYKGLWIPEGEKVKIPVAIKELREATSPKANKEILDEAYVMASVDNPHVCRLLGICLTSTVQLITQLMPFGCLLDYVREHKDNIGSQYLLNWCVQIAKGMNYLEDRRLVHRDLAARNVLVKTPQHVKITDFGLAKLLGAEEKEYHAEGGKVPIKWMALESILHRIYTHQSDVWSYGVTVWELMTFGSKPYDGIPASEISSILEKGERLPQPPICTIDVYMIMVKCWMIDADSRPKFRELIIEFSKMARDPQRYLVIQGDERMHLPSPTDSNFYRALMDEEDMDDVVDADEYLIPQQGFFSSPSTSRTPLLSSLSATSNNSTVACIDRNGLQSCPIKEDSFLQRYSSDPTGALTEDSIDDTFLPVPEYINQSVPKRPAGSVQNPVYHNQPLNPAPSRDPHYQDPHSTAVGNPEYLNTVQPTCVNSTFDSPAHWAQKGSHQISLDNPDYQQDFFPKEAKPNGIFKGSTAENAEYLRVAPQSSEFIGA
# [8] = biological target: Rho-associated protein kinase 1 (Homo sapiens) (UniProt Q13464); assay: Selectivity interaction (Kinase panel (literature)) EUB0001199aCl ROCK1; conditions: at 1 µM
# Chain of Rho-associated protein kinase 1 (Homo sapiens) (Q13464 2-1354 limits assumed): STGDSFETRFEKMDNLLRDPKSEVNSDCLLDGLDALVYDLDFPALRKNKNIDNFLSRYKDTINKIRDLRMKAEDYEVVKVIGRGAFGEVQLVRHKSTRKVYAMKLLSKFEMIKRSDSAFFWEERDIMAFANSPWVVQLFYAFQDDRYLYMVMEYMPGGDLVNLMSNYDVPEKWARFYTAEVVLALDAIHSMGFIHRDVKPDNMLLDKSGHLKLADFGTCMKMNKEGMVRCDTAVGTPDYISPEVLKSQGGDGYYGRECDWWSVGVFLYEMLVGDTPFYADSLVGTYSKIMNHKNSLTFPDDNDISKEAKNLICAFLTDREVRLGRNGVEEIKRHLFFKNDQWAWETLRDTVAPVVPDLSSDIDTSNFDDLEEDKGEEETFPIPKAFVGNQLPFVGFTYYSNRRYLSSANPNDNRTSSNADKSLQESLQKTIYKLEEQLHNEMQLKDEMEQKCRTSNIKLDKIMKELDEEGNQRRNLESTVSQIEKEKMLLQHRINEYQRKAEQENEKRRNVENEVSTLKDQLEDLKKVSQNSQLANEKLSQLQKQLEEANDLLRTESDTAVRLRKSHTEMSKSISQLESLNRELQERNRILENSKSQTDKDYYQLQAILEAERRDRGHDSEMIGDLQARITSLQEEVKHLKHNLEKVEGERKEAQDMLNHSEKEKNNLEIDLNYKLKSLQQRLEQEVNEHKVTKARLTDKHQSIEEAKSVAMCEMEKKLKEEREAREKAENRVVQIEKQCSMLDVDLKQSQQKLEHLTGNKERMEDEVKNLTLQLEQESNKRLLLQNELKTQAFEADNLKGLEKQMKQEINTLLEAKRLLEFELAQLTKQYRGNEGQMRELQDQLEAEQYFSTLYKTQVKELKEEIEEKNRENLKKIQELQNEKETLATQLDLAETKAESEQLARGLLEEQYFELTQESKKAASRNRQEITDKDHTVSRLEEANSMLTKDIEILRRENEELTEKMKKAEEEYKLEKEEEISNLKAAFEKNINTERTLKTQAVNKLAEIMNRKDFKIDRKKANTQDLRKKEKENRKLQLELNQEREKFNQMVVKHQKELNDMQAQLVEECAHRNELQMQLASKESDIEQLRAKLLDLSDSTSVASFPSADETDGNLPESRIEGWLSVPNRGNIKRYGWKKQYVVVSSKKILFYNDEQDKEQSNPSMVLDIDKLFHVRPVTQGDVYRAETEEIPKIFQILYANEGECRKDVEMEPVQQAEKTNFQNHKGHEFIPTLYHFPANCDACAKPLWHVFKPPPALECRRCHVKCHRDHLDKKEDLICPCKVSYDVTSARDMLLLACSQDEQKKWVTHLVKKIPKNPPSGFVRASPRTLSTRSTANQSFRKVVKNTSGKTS
# [9] = biological target: Dual specificity tyrosine-phosphorylation-regulated kinase 1B (Homo sapiens, UniProt Q9Y463); assay: Selectivity interaction (KinomeScan (DiscoverX)) EUB0000607a DYRK1B; conditions: at 10 µM
# Chain of Dual specificity tyrosine-phosphorylation-regulated kinase 1B (Q9Y463 whole entry, looked up): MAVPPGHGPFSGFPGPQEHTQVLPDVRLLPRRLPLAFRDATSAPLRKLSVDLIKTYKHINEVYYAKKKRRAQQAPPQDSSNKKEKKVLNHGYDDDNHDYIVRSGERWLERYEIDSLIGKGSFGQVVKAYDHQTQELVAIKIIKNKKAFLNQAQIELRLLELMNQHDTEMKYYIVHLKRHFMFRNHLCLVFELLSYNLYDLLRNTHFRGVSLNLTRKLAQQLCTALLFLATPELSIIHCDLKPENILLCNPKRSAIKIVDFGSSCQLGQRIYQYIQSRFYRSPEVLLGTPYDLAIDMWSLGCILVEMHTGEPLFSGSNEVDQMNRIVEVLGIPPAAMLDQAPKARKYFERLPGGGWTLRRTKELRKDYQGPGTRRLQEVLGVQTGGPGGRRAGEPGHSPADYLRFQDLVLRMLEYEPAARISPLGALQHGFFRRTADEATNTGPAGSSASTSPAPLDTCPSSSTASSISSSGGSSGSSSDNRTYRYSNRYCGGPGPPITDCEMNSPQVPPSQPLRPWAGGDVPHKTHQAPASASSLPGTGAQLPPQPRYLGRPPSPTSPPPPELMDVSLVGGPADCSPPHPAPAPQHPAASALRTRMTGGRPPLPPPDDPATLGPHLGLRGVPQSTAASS
# [10] = biological target: Protein kinase C delta type (Homo sapiens) (UniProt Q05655); assay: Selectivity interaction (SelectScreen profiling (Invitrogen)) EUB0000607a PRKCD; conditions: at 2 µM
# Chain of Protein kinase C delta type (Homo sapiens) (Q05655 whole entry, looked up): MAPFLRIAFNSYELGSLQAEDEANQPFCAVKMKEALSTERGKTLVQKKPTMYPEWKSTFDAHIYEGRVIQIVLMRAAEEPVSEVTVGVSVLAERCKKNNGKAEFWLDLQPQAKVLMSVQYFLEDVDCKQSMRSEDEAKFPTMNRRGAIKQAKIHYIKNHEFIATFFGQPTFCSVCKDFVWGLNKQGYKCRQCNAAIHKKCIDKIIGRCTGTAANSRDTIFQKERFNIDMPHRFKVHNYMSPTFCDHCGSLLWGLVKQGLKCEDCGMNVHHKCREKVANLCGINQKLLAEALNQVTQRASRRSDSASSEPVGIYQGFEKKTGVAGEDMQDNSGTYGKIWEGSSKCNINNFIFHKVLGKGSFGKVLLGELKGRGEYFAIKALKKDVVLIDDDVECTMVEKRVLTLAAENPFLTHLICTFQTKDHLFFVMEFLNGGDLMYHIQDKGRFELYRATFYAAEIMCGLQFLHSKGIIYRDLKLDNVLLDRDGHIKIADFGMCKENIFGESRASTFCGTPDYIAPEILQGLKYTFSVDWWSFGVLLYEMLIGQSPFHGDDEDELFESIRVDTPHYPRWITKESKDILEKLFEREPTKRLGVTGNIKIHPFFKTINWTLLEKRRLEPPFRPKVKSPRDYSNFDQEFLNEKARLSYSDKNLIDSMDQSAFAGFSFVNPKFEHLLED
# [11] = biological target: Mitogen-activated protein kinase kinase kinase kinase 5 (Homo sapiens) (UniProt Q9Y4K4); assay: Selectivity interaction (KinomeScan (DiscoverX)) EUB0000607a MAP4K5; conditions: at 10 µM
# [12] = biological target: Cyclin-dependent kinase 9 (Homo sapiens, UniProt P50750); assay: Selectivity interaction (KinomeScan (DiscoverX)) EUB0000092b CDK9; conditions: at 10 µM
compound,measurement,setting,value
COCC(=O)NC/C=C/c1ccc2ncnc(Nc3ccc(Oc4ccc(C)nc4)c(C)c3)c2c1 [CP-724714],% of control,[1],100%
CNCCN1CCC(c2cc(CN(C)C(=O)c3cccc(Oc4ccccc4)c3)ccn2)CC1,% activity,[2],> 85%
CC(=O)c1cc(-c2ccccc2OCC2CC2)c2ncccn12,% of control,[3],85%
COc1cc(Nc2nc(C)cc(-c3cnn4nc(OC)ccc34)n2)cc(C(F)(F)F)c1,% of control,[4],87%
same,% of control,[5],82%
same,% of control,[6],93%
C=CC(=O)Nc1cccc(C(=O)Nc2ccc(Nc3cc(-c4[nH]c(SC)nc4C)ccn3)cc2)c1,% of control,[7],85%
CN1Cc2nccc(-c3cn(C)nc3-c3ccc(F)cc3)c2C1=O,% of inhibition,[8],-3%
CNC(=O)Nc1ccc(-c2nc(N3CC4CCC(C3)O4)c3cnn(C4CCC5(CC4)OCCO5)c3n2)cc1,% of control,[9],100%
same,% of inhibition,[10],16%
same,% of control,[11],83%
CCC(=O)N1CCN(c2ccc(-n3c(=O)ccc4cnc5ccc(-c6cnc7ccccc7c6)cc5c43)cc2C(F)(F)F)CC1,% of control,[12],94%

# Reference: ChEMBL document CHEMBL5465560, “Selectivity Literature for EUbOPEN Chemogenomic Library” (2024)
